Measurements from patent publication US20240158348A1, “HERBICIDAL CYCLIC AMIDES N-SUBSTITUTED WITH A HALOALKYLSULFONYLANILIDE GROUP” (FMC Corporation, priority 2021, published 2024).

What was measured:
Type in all cases: in vivo
[1] = test system: pigweed, redroot (redroot pigweed, Amaranthus retroflexus); test: Test A postemergence, redroot pigweed; details: 0 to 100 scale, 10 days
From the text: (§1) Seeds of plant species selected from barnyardgrass (Echinochloa crus-galli), blackgrass (Alopecurus myosuroides), corn (Zea mays), foxtail, giant (giant foxtail, Setaria faberi), goosegrass (Eleusine indica), kochia (Bassia scoparia), oat, wild (wild oat, Avena fatua), pigweed, palmer (palmer amaranth, Amaranthus palmeri), pigweed, redroot (redroot pigweed, Amaranthus retroflexus), ragweed (common ragweed, Ambrosia artemisiifolia), ryegrass, Italian (Italian ryegrass, Lolium multiflorum), soybean (Glycine max), and wheat (Triticum aestivum) were planted into a blend of loam soil and sand and treated preemergence with a directed soil spray using test chemicals formulated in a non-phytotoxic solvent mixture which included a surfactant.
(§2) At the same time, plants selected from these crop and weed species and also galium (catchweed bedstraw, Galium aparine) and horseweed (Erigeron canadensis) were planted in pots containing the same blend of loam soil and sand and treated with postemergence applications of test chemicals formulated in the same manner. Plants ranged in height from 2 to 10 cm and were in the one- to two-leaf stage for the postemergence treatment. Treated plants and untreated controls were maintained in a greenhouse for 10 days, after which time all treated plants were compared to untreated controls and visually evaluated for injury. Plant response ratings, summarized in Table A, are based on a 0 to 100 scale where 0 is no effect and 100 is complete control. A dash (-) response means no test result.

[2] = test system: barnyardgrass (Echinochloa crus-galli); test: Test A preemergence, barnyardgrass; details: 10 days
From the text: as §1, §2

[3] = test system: pigweed, redroot (redroot pigweed, Amaranthus retroflexus); test: Test A preemergence, redroot pigweed; details: 0 to 100 scale, 10 days
From the text: as §1, §2

[4] = test system: barnyardgrass (Echinochloa crus-galli); test: Test A postemergence, barnyardgrass; details: 0 to 100 scale, 10 days
From the text: as §1, §2

[5] = test system: horseweed (Erigeron canadensis); test: Test A postemergence, horseweed; details: 0 to 100 scale, 10 days
From the text: as §1, §2

[6] = 125 g ai/ha, 0 to 100 scale (0 no effect, 100 complete control)

SMILES	Plant response rating, Pigweed, Redroot ([1]; 31 g ai/ha)	Plant response rating, Pigweed, Redroot ([1]; 125 g ai/ha)	Plant response rating, Barnyardgrass ([2]; 31 g ai/ha, 0 to 100 scale)	Plant response rating, Barnyardgrass [2, 6]	Plant response rating, Pigweed, Redroot ([3]; 31 g ai/ha)	Plant response rating, Pigweed, Redroot ([3]; 125 g ai/ha)	Plant response rating, Barnyardgrass ([4]; 31 g ai/ha)	Plant response rating, Barnyardgrass ([4]; 125 g ai/ha)	Plant response rating, Horseweed ([5]; 31 g ai/ha)	Plant response rating, Horseweed ([5]; 125 g ai/ha)
C#CCOC1CCN(c2cc(NS(=O)(=O)C(F)(F)F)c(C)cc2C)C1=O (stereo not drawn) [Compound 1, N-[2,4-dimethyl-5-[2-oxo-3-(2-propyn-1-yloxy)-1-pyrrolidinyl]phenyl]-1,1,1-trifluoromethanesulfonamide]	80	90	80	100	90	100	80	90	–	–
C=CCOC1CCN(c2cc(NS(=O)(=O)C(F)(F)F)c(C)cc2C)C1=O (stereo not drawn) [Compound 2, N-[2,4-dimethyl-5-[2-oxo-3-(2-propen-1-yloxy)-1-pyrrolidinyl]phenyl]-1,1,1-trifluoromethanesulfonamide]	90	90	0	100	90	100	30	90	–	–
Cc1cc(C)c(N2CCC(OC3CC3)C2=O)cc1NS(=O)(=O)C(F)(F)F (stereo not drawn) [Compound 3, N-[5-[3-(cyclopropyloxy)-2-oxo-1-pyrrolidinyl]-2,4-dimethylphenyl]-1,1,1-trifluoromethanesulfonamide]	–	–	–	–	–	–	–	–	70	90
Cc1cc(C)c(N2CCC(OC3CCC3)C2=O)cc1NS(=O)(=O)C(F)(F)F (stereo not drawn) [Compound 4, N-[5-[3-(cyclobutyloxy)-2-oxo-1-pyrrolidinyl]-2,4-dimethylphenyl]-1,1,1-trifluoromethanesulfonamide]	–	–	–	–	–	–	–	–	90	100
Cc1cc(C)c(N(COC(=O)C(C)(C)C)S(=O)(=O)C(F)(F)F)cc1N1CCC(OC2CC2)C1=O (stereo not drawn) [Compound 7, [[5-[3-(cyclopropyloxy)-2-oxo-1-pyrrolidinyl]-2,4-dimethylphenyl][(trifluoromethyl)sulfonyl]amino]methyl 2,2-dimethylpropanoate]	–	–	–	–	–	–	–	–	80	90
Cc1cc(C)c(N(COC(=O)C(C)(C)C)S(=O)(=O)C(F)(F)F)cc1N1CCC(OC2CCC2)C1=O (stereo not drawn) [Compound 8, [[5-[3-(cyclobutyloxy)-2-oxo-1-pyrrolidinyl]-2,4-dimethylphenyl][(trifluoromethyl)sulfonyl]amino]methyl 2,2-dimethylpropanoate]	–	–	–	–	–	–	–	–	70	90
